{"source": "patent US4105603A", "about": "“Peptides which effect release of hormones” (The Salk Institute for Biological Studies, priority 1977, dated 1978)", "key": {"[1]": {"system": "rat anterior pituitary cells", "assay": "In vitro bioassay: secretion of growth hormone by primary cultures of dissociated rat anterior pituitary cells", "assay_type": "cell-based", "conditions": "cultured rat anterior pituitary cells, somatostatin = 100", "procedure": "In vitro Bioassay: The effects of the various peptides of the invention were tested in vitro on the secretion of growth hormone by primary cultures of enzymatically dissociated rat anterior pituitary cells by the method of Vale et al., Endocrinology 91: p 562-571 (1972). The assay is made by treating pituitary glands removed from rats to separate cells therefrom. The cells are placed in culture dishes in Dulbecco's Modified Eagle Medium (Dulbecco et al., Virology, Vol. 8, p. 396, […]). Carbon dioxide gas and oxygen are supplied to the cell cultures which are maintained at 37° C for 4-5 days prior to use in the assay. Following media changes, cell cultures are incubated for a period of 4 hours and particular somatostatin peptides are added thereto. Radioimmunoassay analysis is used to determine the rate of growth hormone secretion which is expressed in nanograms per hour.\nGH determinations were performed on tissue culture media utilizing the following reagents: NIAMDD rat GH standard (GH-RP-1), NIAMDD monkey anti-rat GH (GH-Serum-3), and highly purified rat GH for iodination.\n(§1) All experiments were carried on in a randomized block design. Following analysis of variance difference between treatments were determined by the multiple range tests of Dunnett and Duncan. Potency values were calculated from four or six point bioassays."}, "insulin secretion": {"system": "insulin secretion", "assay": "In vivo bioassay: inhibition of insulin release, portal vein plasma after i.v. peptide", "set-up": "species or system Sprague-Dawley-CD rats", "conditions": "rat, external jugular vein administration, somatostatin = 100", "procedure": "(§2) An investigation of the effect of somatostatin, dihydrosomatostatin, (as controls) and the peptides of the invention to inhibit the release of glucagon and insulin was made as follows:\n(§3) In vivo Bioassay: Male Sprague-Dawley-CD rats weighing 180-200 g housed in temperature and humidity controlled quarters with 14h light and 10h dark (light 0700-[…]) were used in all experiments. Animals were fed a standard ration and tap water ad libitum. Experiments were carried out at least 5 days after arrival of rats from the supplier between the hours 1400 to 1600. After ether anesthesia, peptides or saline were administered in a volume of 0.2 ml. via the external jugular vein. Animals remained anesthetized until the time of blood collection from the portal vein. […]\n(§4) Plasma was stored at -20° C for insulin and glucagon determinations. Insulin levels were determined by the method of Herbert et al, […]. […] Glucagon was determined by the method of Faloona and Unger, in Jaffe et al ed., Methods of Hormone Radioimmunoassay, Academic Press, New York, 1974, p. […] was determined by the glucose oxidase method, utilizing a Beckman Glucose Analyzer.\nas §1"}, "glucagon secretion": {"system": "glucagon secretion", "assay": "In vivo bioassay: inhibition of glucagon release, portal vein plasma after i.v. peptide", "set-up": "species or system Sprague-Dawley-CD rats", "conditions": "rat, external jugular vein administration, somatostatin = 100", "procedure": "as §2, §3, §4, §1"}}, "note": "Non-standard residues stand in square brackets, D forms with d.", "data": [{"compound": "C[C@H](N)C(=O)NCC(=O)N[C@H]1CSSC[C@@H](C(=O)O)NC(=O)[C@H](CO)NC(=O)[C@H]([C@@H](C)O)NC(=O)[C@H](Cc2ccccc2)NC(=O)[C@H]([C@@H](C)O)NC(=O)[C@H](CCCCN)NC(=O)[C@H](Cc2c[nH]c3ccccc23)NC(=O)[C@H](Cc2ccccc2)NC(=O)[C@H](Cc2ccccc2)NC(=O)[C@H](CC(N)=O)NC(=O)[C@H](CCCCN)NC1=O", "note": "[Somatostatin, somatostatin]", "values": [{"measurement": "percent effectiveness for inhibiting secretion of Growth Hormone, somatostatin taken as the base", "setting": "[1]", "result": 100, "unit": "%"}, {"measurement": "percent effectiveness for inhibiting secretion of Insulin, somatostatin taken as the base", "setting": "insulin secretion", "result": 100, "unit": "%"}, {"measurement": "percent effectiveness for inhibiting secretion of Glucagon, somatostatin taken as the base", "setting": "glucagon secretion", "result": 100, "unit": "%"}]}, {"compound": "H-CFF[dW]KFFC-OH (cysteine pairing not given here) [desR1 D-Trp Phe desR4 desR5]", "values": [{"measurement": "percent effectiveness for inhibiting secretion of Growth Hormone, somatostatin taken as the base", "setting": "[1]", "result": 6, "unit": "%"}, {"measurement": "percent effectiveness for inhibiting secretion of Insulin, somatostatin taken as the base", "setting": "insulin secretion", "result": 80, "unit": "%"}, {"measurement": "percent effectiveness for inhibiting secretion of Glucagon, somatostatin taken as the base", "setting": "glucagon secretion", "result": 100, "unit": "%"}]}]}
